In patent US20260070903A1, “NOVEL PYRIDO[3,4-D]PYRIMIDIN-8-ONE DERIVATIVE HAVING PROTEIN KINASE INHIBITORY ACTIVITY, AND PHARMACEUTICAL COMPOSITION FOR PREVENTING, ALLEVIATING, OR TREATING CANCER, COMPRISING SAME” (KOREA INSTITUTE OF SCIENCE AND TECHNOLOGY, priority 2019, published 2026):

How the values were obtained:
OCI-AML3 (N-Ras Q61L) = test: Proliferation inhibitory activity, OCI-AML3; assay type: cell-based, human
Description: (§1) The inhibitory activities of the compounds of the present disclosure against the proliferation of the mt-NRAS (G12D) Ba/F3 and OCI-AML3 (mt-NRAS) cell lines were measured and the GI50 values thereof were calculated.

Ba/F3 (N-Ras G12D) = test: Proliferation inhibitory activity, Ba/F3 N-Ras G12D; assay type: cell-based
Description: as §1

GCK = target: T1, GCK (Homo sapiens, UniProt Q12851); test: Inhibitory activity against GCK kinase (IC50); assay type: biochemical
T1 sequence (Q12851 1-820): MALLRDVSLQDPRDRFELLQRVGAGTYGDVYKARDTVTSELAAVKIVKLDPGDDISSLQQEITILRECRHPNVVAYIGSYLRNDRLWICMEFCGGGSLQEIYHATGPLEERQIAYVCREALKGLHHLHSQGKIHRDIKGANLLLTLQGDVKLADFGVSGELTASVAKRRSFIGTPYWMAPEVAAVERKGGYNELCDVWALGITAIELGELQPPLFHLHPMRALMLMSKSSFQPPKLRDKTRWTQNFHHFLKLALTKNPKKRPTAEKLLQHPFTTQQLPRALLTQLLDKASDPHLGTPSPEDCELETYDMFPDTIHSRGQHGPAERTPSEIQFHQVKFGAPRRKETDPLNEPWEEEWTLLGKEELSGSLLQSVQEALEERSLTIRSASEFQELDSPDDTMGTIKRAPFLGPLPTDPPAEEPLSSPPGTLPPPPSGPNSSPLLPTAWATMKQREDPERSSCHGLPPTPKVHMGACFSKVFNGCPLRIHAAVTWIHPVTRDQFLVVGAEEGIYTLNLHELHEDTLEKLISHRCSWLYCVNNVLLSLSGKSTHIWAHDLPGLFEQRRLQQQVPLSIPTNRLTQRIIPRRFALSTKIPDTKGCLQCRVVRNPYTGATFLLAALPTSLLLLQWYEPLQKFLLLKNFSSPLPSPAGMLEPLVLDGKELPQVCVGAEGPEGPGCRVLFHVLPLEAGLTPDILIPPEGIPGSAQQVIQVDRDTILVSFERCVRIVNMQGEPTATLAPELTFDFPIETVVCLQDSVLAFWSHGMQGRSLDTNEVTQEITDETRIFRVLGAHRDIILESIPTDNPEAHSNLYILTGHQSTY
Description: (§2) The inhibitory activities of the compounds of the present disclosure against two kinases, GCK and ACK1, were measured, and the IC50 values thereof were calculated.

ACK1 = ACK1 (Homo sapiens, UniProt Q07912); test: Inhibitory activity against ACK1 kinase (IC50); assay type: biochemical
ACK1, sequence (Q07912 whole entry): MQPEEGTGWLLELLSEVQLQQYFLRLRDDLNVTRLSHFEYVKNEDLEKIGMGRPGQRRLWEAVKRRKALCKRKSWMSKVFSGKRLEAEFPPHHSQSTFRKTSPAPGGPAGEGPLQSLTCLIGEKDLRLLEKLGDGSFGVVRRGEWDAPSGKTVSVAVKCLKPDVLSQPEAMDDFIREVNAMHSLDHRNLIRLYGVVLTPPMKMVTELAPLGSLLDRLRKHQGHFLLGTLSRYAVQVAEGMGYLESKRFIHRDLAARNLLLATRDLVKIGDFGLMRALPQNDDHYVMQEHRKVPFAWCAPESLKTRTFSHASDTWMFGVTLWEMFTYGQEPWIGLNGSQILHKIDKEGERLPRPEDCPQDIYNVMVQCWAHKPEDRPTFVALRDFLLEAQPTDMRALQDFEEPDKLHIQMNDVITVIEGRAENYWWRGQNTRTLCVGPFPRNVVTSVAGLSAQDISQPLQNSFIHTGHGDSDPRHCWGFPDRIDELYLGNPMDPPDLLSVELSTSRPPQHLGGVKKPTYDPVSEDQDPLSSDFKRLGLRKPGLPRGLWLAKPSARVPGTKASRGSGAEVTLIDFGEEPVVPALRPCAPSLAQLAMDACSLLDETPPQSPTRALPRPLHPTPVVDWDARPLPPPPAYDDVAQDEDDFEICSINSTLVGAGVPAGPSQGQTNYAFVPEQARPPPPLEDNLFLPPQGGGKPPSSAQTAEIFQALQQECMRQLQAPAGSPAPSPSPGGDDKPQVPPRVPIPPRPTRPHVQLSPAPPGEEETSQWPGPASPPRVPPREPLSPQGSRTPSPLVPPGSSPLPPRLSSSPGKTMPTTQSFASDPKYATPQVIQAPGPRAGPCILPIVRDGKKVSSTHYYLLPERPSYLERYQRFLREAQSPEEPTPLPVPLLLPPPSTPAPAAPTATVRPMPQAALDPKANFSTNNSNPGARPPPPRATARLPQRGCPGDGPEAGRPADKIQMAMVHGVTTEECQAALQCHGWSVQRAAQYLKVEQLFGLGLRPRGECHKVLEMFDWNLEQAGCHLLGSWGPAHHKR
Description: as §2

SMILES: Cc1ccc(Nc2ncc3cc(-c4cc(NC(=O)c5cccc(C(F)(F)F)c5)ccc4C)[nH]c(=O)c3n2)cn1 [Compound No. 54, N-(4-methyl-3-(2-((6-methylpyridin-3-yl)amino)-8-oxo-7,8-dihydropyrido[3,4-d]pyrimidin-6-yl)phenyl)-3-(trifluoromethyl)benzamide]
- GI50 (OCI-AML3 (N-Ras Q61L); Homo sapiens, OCI-AML-3): < 0.5 µM
- GI50 (Ba/F3 (N-Ras G12D); Mus musculus, BaF3): 0.5 to 3 µM

SMILES: Cc1ccc(NC(=O)c2cccc(C(F)(F)F)c2)cc1-c1cc2cnc(Nc3ccc(N4CCC(O)CC4)cc3)nc2c(=O)n1C [Compound No. 19, N-(3-(2-((4-(4-hydroxypiperidin-1-yl)phenyl)amino)-7-methyl-8-oxo-7,8-dihydropyrido[3,4-d]pyrimidin-6-yl)-4-methylphenyl)-3-(trifluoromethyl)benzamide]
- GI50 (OCI-AML3 (N-Ras Q61L); Homo sapiens, OCI-AML-3): 0.5 to 3 µM
- GI50 (Ba/F3 (N-Ras G12D); Mus musculus, BaF3): 0.5 to 3 µM

SMILES: Cc1ccc(NC(=O)c2cccc(C(F)(F)F)c2)cc1-c1cc2cnc(NC3CC3)nc2c(=O)n1C [Compound No. 1, N-(3-(2-(cyclopropylamino)-7-methyl-8-oxo-7,8-dihydropyrido[3,4-d]pyrimidin-6-yl)-4-methylphenyl)-3-(trifluoromethyl)benzamide]
- GI50 (OCI-AML3 (N-Ras Q61L); Homo sapiens, OCI-AML-3): 0.5 to 3 µM
- GI50 (Ba/F3 (N-Ras G12D); Mus musculus, BaF3): 0.5 to 3 µM

SMILES: Cc1ccc(NC(=O)c2cccc(C(F)(F)F)c2)cc1-c1cc2cnc(Nc3ccc(C(=O)N(C)C)cc3)nc2c(=O)n1C [Compound No. 15]
- GI50 (OCI-AML3 (N-Ras Q61L); Homo sapiens, OCI-AML-3): 0.5 to 3 µM
- GI50 (Ba/F3 (N-Ras G12D); Mus musculus, BaF3): 0.5 to 3 µM

SMILES: COc1cc(N2CCOCC2)ccc1Nc1ncc2cc(-c3cc(NC(=O)c4cccc(C(F)(F)F)c4)ccc3C)n(C)c(=O)c2n1 [Compound No. 22, N-(3-(2-((2-methoxy-4-morpholinophenyl)amino)-7-methyl-8-oxo-7,8-dihydropyrido[3,4-d]pyrimidin-6-yl)-4-methylphenyl)-3-(trifluoromethyl)benzamide]
- GI50 (OCI-AML3 (N-Ras Q61L); Homo sapiens, OCI-AML-3): > 5 µM
- GI50 (Ba/F3 (N-Ras G12D); Mus musculus, BaF3): > 5 µM

SMILES: Cc1ccc(NC(=O)c2cccc(C(F)(F)F)c2)cc1-c1cc2cnc(NCCN3CCOCC3)nc2c(=O)n1C [Compound No. 6, N-(4-methyl-3-(7-methyl-2-((2-morpholinoethyl)amino)-8-oxo-7,8-dihydropyrido[3,4-d]pyrimidin-6-yl)phenyl)-3-(trifluoromethyl)benzamide]
- GI50 (OCI-AML3 (N-Ras Q61L); Homo sapiens, OCI-AML-3): 0.5 to 3 µM
- GI50 (Ba/F3 (N-Ras G12D); Mus musculus, BaF3): 0.5 to 3 µM

SMILES: COc1ccc(CNc2ncc3cc(-c4cc(NC(=O)c5cccc(C(F)(F)F)c5)ccc4C)n(C)c(=O)c3n2)cc1 [Compound No. 10, N-(3-(2-((4-methoxybenzyl)amino)-7-methyl-8-oxo-7,8-dihydropyrido[3,4-d]pyrimidin-6-yl)-4-methylphenyl)-3-(trifluoromethyl)benzamide]
- GI50 (OCI-AML3 (N-Ras Q61L); Homo sapiens, OCI-AML-3): > 5 µM
- GI50 (Ba/F3 (N-Ras G12D); Mus musculus, BaF3): > 5 µM

SMILES: Cc1ccc(NC(=O)c2cccc(C(F)(F)F)c2)cc1-c1cc2cnc(NCCSCc3ccco3)nc2c(=O)n1C [Compound No. 11, N-(3-(2-((2-((furan-2-ylmethyl)thio)ethyl)amino)-7-methyl-8-oxo-7,8-dihydiropyrido[3,4-d]pyrimidin-6-yl)-4-methylphenyl)-3-(trifluoromethyl)benzamide]
- GI50 (OCI-AML3 (N-Ras Q61L); OCI-AML3 (N-Ras Q61L)): 3 to 5 µM
- GI50 (Ba/F3 (N-Ras G12D); Ba/F3 (N-Ras G12D)): > 5 µM

SMILES: CCN1CCN(c2ccc(Nc3ncc4cc(-c5cc(NC(=O)c6cccc(C(F)(F)F)c6)ccc5C)n(C)c(=O)c4n3)cc2)CC1 [Compound No. 17, N-(3-(2-((4-(4-ethylpiperazin-1-yl)phenyl)amino)-7-methyl-8-oxo-7,8-dihydropyrido[3,4-d]pyrimidin-6-yl)-4-methylphenyl)-3-(trifluoromethyl)benzamide]
- GI50 (OCI-AML3 (N-Ras Q61L); Homo sapiens, OCI-AML-3): < 0.5 µM
- GI50 (Ba/F3 (N-Ras G12D); Mus musculus, BaF3): 0.5 to 3 µM

SMILES: Cc1ccc(NC(=O)c2cccc(C(F)(F)F)c2)cc1-c1cc2cnc(NCCO)nc2c(=O)n1C [Compound No. 2, N-(3-(2-((2-hydroxyethyl)amino)-7-methyl-8-oxo-7,8-dihydropyrido[3,4-d]pyrimidin-6-yl)-4-methylphenyl)-3-(trifluoromethyl)benzamide]
- GI50 (OCI-AML3 (N-Ras Q61L); Homo sapiens, OCI-AML-3): 0.5 to 3 µM
- GI50 (Ba/F3 (N-Ras G12D); Mus musculus, BaF3): 0.5 to 3 µM

SMILES: Cc1ccc(NC(=O)c2cccc(C(F)(F)F)c2)cc1-c1cc2cnc(NC3CC3)nc2c(=O)[nH]1 [Compound No. 53, N-(3-(2-(cyclopropylamino)-8-oxo-7,8-dihydropyrido[3,4-d]pyrimidin-6-yl)-4-methylphenyl)-3-(trifluoromethyl)benzamide]
- GI50 (OCI-AML3 (N-Ras Q61L); Homo sapiens, OCI-AML-3): < 0.5 µM
- GI50 (Ba/F3 (N-Ras G12D); Mus musculus, BaF3): < 0.5 µM
- IC50 (GCK): 100 to 1000 nM
- IC50 (ACK1): < 100 nM

SMILES: Cc1ccc(Nc2ncc3cc(-c4cc(NC(=O)c5cccc(C(F)(F)F)c5)ccc4C)n(C)c(=O)c3n2)cn1 [Compound No. 13, N-(4-methyl-3-(7-methyl-2-((6-methylpyridin-3-yl)amino)-8-oxo-7,8-dihydropyrido[3,4-d]pyrimidin-6-yl)phenyl)-3-(trifluoromethyl)benzamide]
- GI50 (OCI-AML3 (N-Ras Q61L); Homo sapiens, OCI-AML-3): < 0.5 µM
- GI50 (Ba/F3 (N-Ras G12D); Mus musculus, BaF3): < 0.5 µM
- IC50 (GCK): 100 to 1000 nM
- IC50 (ACK1): < 100 nM

SMILES: Cc1ccc(NC(=O)c2cccc(C(F)(F)F)c2)cc1-c1cc2cnc(N3CCOCC3)nc2c(=O)n1C [Compound No. 12, N-(4-methyl-3-(7-methyl-2-morpholino-8-oxo-7,8-dihydropyrido[3,4-d]pyrimidin-6-yl)phenyl)-3-(trifluoromethyl)benzamide]
- GI50 (OCI-AML3 (N-Ras Q61L); Homo sapiens, OCI-AML-3): 0.5 to 3 µM
- GI50 (Ba/F3 (N-Ras G12D); Mus musculus, BaF3): > 5 µM
